Consider 16 compounds from patent publication US20210238192A1, “VASCULAR ADHESION PROTEIN-1 (VAP-1) MODULATORS AND THERAPEUTIC USES THEREOF” (Blade Therapeutics, Inc., priority 2018, published 2021).

Common to all, as to format: biochemical
One assay addresses T1, Human DAO (Homo sapiens, UniProt P19801).
T1 sequence (P19801 20-751): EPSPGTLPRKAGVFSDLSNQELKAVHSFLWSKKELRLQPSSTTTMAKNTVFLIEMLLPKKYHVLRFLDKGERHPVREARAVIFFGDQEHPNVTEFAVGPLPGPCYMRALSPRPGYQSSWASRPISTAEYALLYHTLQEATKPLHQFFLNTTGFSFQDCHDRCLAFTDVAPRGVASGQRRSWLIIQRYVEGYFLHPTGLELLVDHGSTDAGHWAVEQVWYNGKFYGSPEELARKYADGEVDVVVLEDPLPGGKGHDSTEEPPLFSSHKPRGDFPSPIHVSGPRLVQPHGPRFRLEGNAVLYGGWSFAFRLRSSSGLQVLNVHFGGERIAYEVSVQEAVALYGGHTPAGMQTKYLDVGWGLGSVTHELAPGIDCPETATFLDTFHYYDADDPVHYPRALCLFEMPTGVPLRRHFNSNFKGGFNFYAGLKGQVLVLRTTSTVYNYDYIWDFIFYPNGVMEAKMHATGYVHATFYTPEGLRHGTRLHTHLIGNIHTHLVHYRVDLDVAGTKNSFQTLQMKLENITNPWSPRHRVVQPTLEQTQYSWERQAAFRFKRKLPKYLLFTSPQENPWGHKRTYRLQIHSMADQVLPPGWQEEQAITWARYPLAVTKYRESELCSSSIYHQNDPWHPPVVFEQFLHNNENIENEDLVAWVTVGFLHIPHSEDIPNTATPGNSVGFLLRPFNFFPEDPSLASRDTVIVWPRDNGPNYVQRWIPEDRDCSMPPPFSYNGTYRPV
Put plainly: DAO inhibition (Amplex Red continuous fluorescence assay). The conditions noted are these: 30 min pre-incubation at room temp; substrate histamine; read-out: Human DAO IC50. On the procedure: (§1) VAP-1, DAO, MAO-A, MAO-B, and HRP activity and inhibition thereof was assessed by means of a continuous fluorescence assay. The Amplex Red Hydrogen Peroxide/Peroxidase Assay (ThermoFisher) was optimized for detecting amine oxidase (AO) activity. In an enzyme-coupled reaction, the H2O2 generated by AO reacts 1:1 with Amplex Red reagent to produce fluorescent product resorufin.
(§2) Assays were typically setup in black 384-well plates using automated liquid handling as follows. VAP-1/MAO assay buffer contains […] sodium phosphate, pH 7.4; DAO assay buffer contains 50 mM HEPES, pH 7.5; HRP assay buffer contains 100 mM CHES, 1 mM MgCl2, 50 mM NaCl, 0.05% BSA, pH 9.0. Inhibitors were serially diluted in DMSO and used to setup 2× mixtures with AO in the aforementioned buffer. After 30 min pre-incubation at 37° C. (VAP-1, HRP) or room temp (DAO, MAO), the reaction was initiated by adding a 2× mix of Amplex Red, HRP (coupling enzyme), and substrate (benzylamine, histamine, tyramine, benzylamine, H2O2, for VAP-1, DAO, MAO-A, MAO-B, and HR, respectively) in the same buffer. Reaction progress curve data were typically collected for 5 min using excitation/emission wavelengths of 510 nm/565 nm on FLIPR-Tetra plate readers (Molecular Devices Inc). Reaction rates were calculated from progress curve slopes typically over 60-150 sec. Dose response curves (rate vs. log inhibitor concentration) were typically fit to a 4-parameter logistic function to extract IC50 values.

A further assay has as its target T2, Human MAO-A (Homo sapiens, UniProt P21397).
T2 sequence (P21397 1-527): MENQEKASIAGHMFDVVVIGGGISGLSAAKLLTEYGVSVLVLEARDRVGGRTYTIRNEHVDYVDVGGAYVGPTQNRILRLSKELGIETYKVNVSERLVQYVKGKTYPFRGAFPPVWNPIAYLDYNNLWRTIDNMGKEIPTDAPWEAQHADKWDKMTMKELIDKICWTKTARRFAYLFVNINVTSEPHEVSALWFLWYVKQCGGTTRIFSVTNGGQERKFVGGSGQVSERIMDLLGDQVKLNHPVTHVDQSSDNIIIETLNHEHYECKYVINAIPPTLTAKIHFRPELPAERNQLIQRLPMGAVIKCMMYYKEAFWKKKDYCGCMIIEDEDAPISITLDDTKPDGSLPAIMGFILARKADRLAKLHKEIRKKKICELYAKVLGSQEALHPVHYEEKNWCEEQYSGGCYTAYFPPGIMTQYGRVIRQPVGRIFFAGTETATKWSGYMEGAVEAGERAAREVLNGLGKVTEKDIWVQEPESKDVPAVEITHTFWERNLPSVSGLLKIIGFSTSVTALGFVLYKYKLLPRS
Put plainly: MAO-A inhibition (Amplex Red continuous fluorescence assay). The conditions noted are these: 30 min pre-incubation at room temp; substrate tyramine; read-out: Human MAO-A IC50. On the procedure: as §1, §2

For a further assay, the target named is T3, Human VAP-1 (Homo sapiens, UniProt Q16853).
T3 sequence (Q16853 1-763): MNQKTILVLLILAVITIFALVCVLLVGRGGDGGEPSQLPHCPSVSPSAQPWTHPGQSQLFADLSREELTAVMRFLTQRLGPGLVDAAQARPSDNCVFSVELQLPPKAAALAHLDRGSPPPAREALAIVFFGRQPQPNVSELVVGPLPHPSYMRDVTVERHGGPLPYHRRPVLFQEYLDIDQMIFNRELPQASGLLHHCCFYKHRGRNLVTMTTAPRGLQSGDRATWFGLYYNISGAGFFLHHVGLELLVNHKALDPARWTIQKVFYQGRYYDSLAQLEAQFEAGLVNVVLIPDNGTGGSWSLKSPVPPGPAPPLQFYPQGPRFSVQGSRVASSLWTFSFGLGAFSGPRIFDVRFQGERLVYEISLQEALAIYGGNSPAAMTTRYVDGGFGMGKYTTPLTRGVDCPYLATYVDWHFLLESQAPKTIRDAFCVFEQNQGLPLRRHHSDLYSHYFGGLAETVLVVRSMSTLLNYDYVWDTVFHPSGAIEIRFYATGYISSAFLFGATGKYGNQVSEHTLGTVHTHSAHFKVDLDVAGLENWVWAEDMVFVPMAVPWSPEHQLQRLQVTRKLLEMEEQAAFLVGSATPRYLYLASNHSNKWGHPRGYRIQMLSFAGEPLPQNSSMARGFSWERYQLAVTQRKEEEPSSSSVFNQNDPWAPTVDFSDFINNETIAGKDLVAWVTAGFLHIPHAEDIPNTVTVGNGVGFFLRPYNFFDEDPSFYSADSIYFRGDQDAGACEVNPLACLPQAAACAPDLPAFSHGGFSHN
Put plainly: VAP-1 inhibition assay (Amplex Red continuous fluorescence assay). To be noted: 30 min pre-incubation at 37° C.; substrate benzylamine; read-out: Human VAP-1 IC50. On the procedure: as §1, §2

The target of the next assay is T4, Human MAO-B (Homo sapiens, UniProt P27338).
T4 sequence (P27338 1-520): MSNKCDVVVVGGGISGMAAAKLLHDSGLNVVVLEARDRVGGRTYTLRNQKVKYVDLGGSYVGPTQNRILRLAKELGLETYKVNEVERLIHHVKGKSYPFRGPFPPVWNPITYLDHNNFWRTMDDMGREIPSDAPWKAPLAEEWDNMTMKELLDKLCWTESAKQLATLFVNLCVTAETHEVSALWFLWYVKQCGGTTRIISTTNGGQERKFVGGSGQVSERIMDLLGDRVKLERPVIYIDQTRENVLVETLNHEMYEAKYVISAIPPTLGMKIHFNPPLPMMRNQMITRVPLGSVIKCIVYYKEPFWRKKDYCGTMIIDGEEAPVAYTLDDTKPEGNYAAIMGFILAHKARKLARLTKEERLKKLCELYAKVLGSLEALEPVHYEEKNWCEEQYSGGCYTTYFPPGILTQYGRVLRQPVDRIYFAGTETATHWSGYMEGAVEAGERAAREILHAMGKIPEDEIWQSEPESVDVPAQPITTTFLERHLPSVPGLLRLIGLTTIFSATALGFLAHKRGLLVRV
Put plainly: MAO-B inhibition (Amplex Red continuous fluorescence assay). To be noted: 30 min pre-incubation at room temp; substrate benzylamine; read-out: Human MAO-B IC50. On the procedure: as §1, §2

Molecules are shown by their SMILES. pIC50: −log10 of the molar value. Counter-ions that a name gives are not always drawn.

On to `NCC(=CF)COc1ccc(-c2cnn[nH]2)cc1` [Compound 60], for which the pIC50 on Human DAO, at Human MAO-A, at Human VAP-1 and at Human MAO-B was greater than 5.52 throughout.

Turning to `CCNC(=O)N(C)c1ccc(OC/C(=C/F)CN)cc1` [Compound 23, (E)-1-(4-((2-(aminomethyl)-3-fluoroalkyl)oxy)phenyl)-3-ethyl-1-methylurea hydrochloride], the pIC50 is less than 5.00 at Human DAO, less than 5.00 at Human MAO-A, greater than 5.52 at Human VAP-1 and 5.00 to 5.52 on Human MAO-B.

Consider `NC/C(=C\F)COc1ccc(-c2ncc[nH]2)cc1` [Compound 4, (E)-2-((4-(1H-imidazol-2-yl)phenoxy)methyl)-3-fluoroprop-2-en-1-amine], for which the pIC50 at Human DAO was greater than 5.52; at Human MAO-A it was less than 5.00; at Human VAP-1 it was greater than 5.52; on Human MAO-B it was less than 5.00.

`NC/C(=C\F)COc1ccc(-c2ncn[nH]2)cc1` [Compound 64, (E)-2-((4-(1H-1,2,4-triazol-5-yl)phenoxy)methyl)-3-fluoroprop-2-en-1-amine]: the pIC50 on Human DAO is greater than 5.52; on Human MAO-A, 5.00 to 5.52; on Human VAP-1, greater than 5.52; at Human MAO-B it was greater than 5.52.

As for `NC/C(=C\F)CNC(=O)c1ccccc1` [Compound 21, (E)-N-(2-(aminomethyl)-3-fluoroalkyl)benzamide hydrochloride], the pIC50 at Human DAO was less than 5.00; on Human MAO-A, 5.00 to 5.52; at Human VAP-1, greater than 5.52; at Human MAO-B, less than 5.00.

Turning to `NC/C(=C\F)COc1cnc(N2CC[C@H](O)C2)nc1` [Compound 79], the pIC50 at Human DAO was greater than 5.52; at Human MAO-A, less than 5.00; on Human VAP-1 it was greater than 5.52; on Human MAO-B, 5.00 to 5.52.

With `Cn1ccnc1-c1ccc(OC/C(=C/F)CN)cc1` [Compound 27, (E)-3-fluoro-2-((4-(1-methyl-1H-imidazol-2-yl)phenoxy)methyl)prop-2-en-1-aminedihydrochloride], the pIC50 at Human MAO-A was less than 5.00; on Human VAP-1, greater than 5.52; at Human MAO-B, greater than 5.52.

For `NC/C(=C\F)COc1cccc2[nH]cnc12` [Compound 2, hydrochloride], the pIC50 on Human MAO-A is less than 5.00; on Human VAP-1 it was 5.00 to 5.52; on Human MAO-B, less than 5.00.

For the compound `CC(=O)N(CC(=CF)CN)C1CCCCC1` (mixture of isomers) [Compound 31, hydrochloride], the pIC50 on Human MAO-A, on Human VAP-1 and at Human MAO-B was less than 5.00 throughout.

`NC/C(=C\F)CNS(=O)(=O)c1ccccc1` [Compound 17, (E)-N-(2-(aminomethyl)-3-fluoroalkyl)benzenesulfonamide hydrochloride]: the pIC50 was less than 5.00 on Human MAO-A, 5.00 to 5.52 on Human VAP-1 and less than 5.00 on Human MAO-B.

For `CC(=O)N(CC(=CF)CN)Cc1ccccc1` [Compound 32], the pIC50 at Human MAO-A, at Human VAP-1 and on Human MAO-B was less than 5.00 throughout.

With `CC(=O)N(C/C(=C/F)CN)c1ccccc1` [Compound 1, (E)-N-(2-(aminomethyl)-3-fluoroalkyl)-N-phenylacetamide hydrochloride], the pIC50 on Human MAO-A, at Human VAP-1 and on Human MAO-B was less than 5.00 in each case.

On to `NC/C(=C\F)COc1ccc(C(=O)NCCOCCOCCOCCNC(=O)CCCCC2SCC3NC(=O)NC32)cc1` (stereo not drawn) [Compound 77, (E)-4-((2-(aminomethyl)-3-fluoroalkyl)oxy)-N-(13-oxo-17-(2-oxohexahydro-1H-thieno[3,4-d]imidazol-4-yl)-3,6,9-trioxa-12-azaheptadecyl)benzamide], for which the pIC50 at Human DAO is greater than 5.52; at Human MAO-A, less than 5.00; at Human MAO-B it was 5.00 to 5.52.

With `NCC(=CF)CN1CCCCC1` (mixture of isomers) [Compound 12, 3-fluoro-2-(piperidin-1-ylmethyl)prop-2-en-1-amine], the pIC50 at Human MAO-A, on Human VAP-1 and on Human MAO-B was less than 5.00 in each case.

In the case of `NC/C(=C\F)CNC1CCCCC1` [Compound 22, (E)-N1-cyclohexyl-2-(fluoromethylene)propane-1,3-diamine], the pIC50 was less than 5.00 at Human MAO-A, less than 5.00 on Human VAP-1 and 5.00 to 5.52 at Human MAO-B.

In the case of `NC/C(=C\F)COc1ccc(C(=O)NCCCCCNC(=O)CCCCC2SCC3NC(=O)NC32)cc1` (stereo not drawn) [Compound 76, (E)-4-((2-(aminomethyl)-3-fluoroalkyl)oxy)-N-(5-(5-(2-oxohexahydro-1H-thieno[3,4-d]imidazol-4-yl)pentanamido)pentyl)benzamide], the figures for the pIC50 at Human DAO, on Human MAO-A and at Human MAO-B were greater than 5.52, less than 5.00 and greater than 5.52, respectively.
